Results taken from PubChem BioAssay AID2060505 (Molecular Pharmacology Branch, DTP, NCI, 2025).

System: 633275-114-R-J1-PDC complex spheroids, viability
Experiment: Anticancer human tumor 633275-114-R-J1-PDC patient-derived endometrial adenocarcinoma cell line growth inhibition [GQUAD]
Details: for IC50: curve of first compound; for viability, T/C: stronger effect = lower value
Procedure, shortened: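 Tumor cells were grown as complex spheroids with HUVEC endothelial cells and mesenchymal stem cells as stroma. G-quadruplex stabilizers were combined with targeted agents over half-log dilutions from near the clinical Cmax, or from 10 microM.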

[1] = second compound 0.0316 µM, first compound 0.0316 µM
[2] = second compound 0.0316 µM, first compound 0.316 µM
[3] = second compound 0.1 µM, first compound 0.0316 µM
[4] = second compound 0.1 µM, first compound 0.316 µM
[5] = second compound 0.316 µM, first compound 0.0316 µM
[6] = second compound 0.316 µM, first compound 0.316 µM
[7] = second compound 1 µM, first compound 0.0316 µM
[8] = second compound 1 µM, first compound 0.316 µM
[9] = second compound 3.16 µM, first compound 0.0316 µM
[10] = second compound 3.16 µM, first compound 0.316 µM
[11] = second compound 10 µM, first compound 0.0316 µM
[12] = second compound 10 µM, first compound 0.316 µM
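Note: spheroids exposed to the agents for seven days.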
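Throughout, for viability, T/C: percent of DMSO vehicle control viability which is 100%.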

CCc1c2c(nc3ccc(O)cc13)-c1cc3c(c(=O)n1C2)COC(=O)[C@]3(O)CC + Cc1[nH]c2ccc(F)cc2c1-c1nc2c3cccnc3c3ncccc3c2[nH]1
IC50 (second compound 0.0316 µM): 2.44 nM
IC50 (second compound 0.1 µM): 3.09 nM
IC50 (second compound 0.316 µM): 2.7 nM
IC50 (second compound 1 µM): 2.27 nM
IC50 (second compound 3.16 µM): 1.62 nM
IC50 (second compound 10 µM): 1.41 nM
viability, T/C (second compound 0.0316 µM, first compound 0.000999 µM): 69.7%
viability, T/C (second compound 0.0316 µM, first compound 0.00316 µM): 42.2%
viability, T/C (second compound 0.0316 µM, first compound 0.00999 µM): 36.2%
viability, T/C [1]: 31.7%
viability, T/C (second compound 0.0316 µM, first compound 0.0999 µM): 30%
viability, T/C [2]: 24.7%
viability, T/C (second compound 0.1 µM, first compound 0.000999 µM): 71.1%
viability, T/C (second compound 0.1 µM, first compound 0.00316 µM): 47.1%
viability, T/C (second compound 0.1 µM, first compound 0.00999 µM): 37.2%
viability, T/C [3]: 34.3%
viability, T/C (second compound 0.1 µM, first compound 0.0999 µM): 27.3%
viability, T/C [4]: 22.3%
viability, T/C (second compound 0.316 µM, first compound 0.000999 µM): 68.8%
viability, T/C (second compound 0.316 µM, first compound 0.00316 µM): 44.2%
viability, T/C (second compound 0.316 µM, first compound 0.00999 µM): 37.5%
viability, T/C [5]: 31.4%
viability, T/C (second compound 0.316 µM, first compound 0.0999 µM): 28%
viability, T/C [6]: 22.4%
viability, T/C (second compound 1 µM, first compound 0.000999 µM): 62.6%
viability, T/C (second compound 1 µM, first compound 0.00316 µM): 43.5%
viability, T/C (second compound 1 µM, first compound 0.00999 µM): 35.1%
viability, T/C [7]: 32.3%
viability, T/C (second compound 1 µM, first compound 0.0999 µM): 27.5%
viability, T/C [8]: 23.4%
viability, T/C (second compound 3.16 µM, first compound 0.000999 µM): 57.5%
viability, T/C (second compound 3.16 µM, first compound 0.00316 µM): 38.9%
viability, T/C (second compound 3.16 µM, first compound 0.00999 µM): 33.2%
viability, T/C [9]: 30.8%
viability, T/C (second compound 3.16 µM, first compound 0.0999 µM): 27.6%
viability, T/C [10]: 25.8%
viability, T/C (second compound 10 µM, first compound 0.000999 µM): 55.2%
viability, T/C (second compound 10 µM, first compound 0.00316 µM): 37.7%
viability, T/C (second compound 10 µM, first compound 0.00999 µM): 33%
viability, T/C [11]: 29.5%
viability, T/C (second compound 10 µM, first compound 0.0999 µM): 24.8%
viability, T/C [12]: 23.7%

O=C(NO)c1cnc(N2CCN(S(=O)(=O)c3ccc4ccccc4c3)CC2)nc1 + Cc1cnc(CNC(=O)c2c(=O)c3ccc(N4CCCN(C)CC4)nc3n3c2sc2ccccc23)cn1
IC50 (second compound 0.0316 µM): 109 nM
IC50 (second compound 0.1 µM): < 31.6 nM
IC50 (second compound 0.316 µM): < 31.6 nM
IC50 (second compound 1 µM): < 31.6 nM
IC50 (second compound 3.16 µM): < 31.6 nM
IC50 (second compound 10 µM): < 31.6 nM
viability, T/C [1]: 54%
viability, T/C (second compound 0.0316 µM, first compound 0.1 µM): 53.5%
viability, T/C [2]: 33.2%
viability, T/C (second compound 0.0316 µM, first compound 1 µM): 15.1%
viability, T/C (second compound 0.0316 µM, first compound 3.16 µM): 12.3%
viability, T/C (second compound 0.0316 µM, first compound 10 µM): 4.21%
viability, T/C [3]: 48.3%
viability, T/C (second compound 0.1 µM, first compound 0.1 µM): 42.8%
viability, T/C [4]: 31%
viability, T/C (second compound 0.1 µM, first compound 1 µM): 16.3%
viability, T/C (second compound 0.1 µM, first compound 3.16 µM): 10.7%
viability, T/C (second compound 0.1 µM, first compound 10 µM): 4.01%
viability, T/C [5]: 40.8%
viability, T/C (second compound 0.316 µM, first compound 0.1 µM): 42.9%
viability, T/C [6]: 23.7%
viability, T/C (second compound 0.316 µM, first compound 1 µM): 14.1%
viability, T/C (second compound 0.316 µM, first compound 3.16 µM): 7.68%
viability, T/C (second compound 0.316 µM, first compound 10 µM): 1.96%
viability, T/C [7]: 40.4%
viability, T/C (second compound 1 µM, first compound 0.1 µM): 36.3%
viability, T/C [8]: 22.4%
viability, T/C (second compound 1 µM, first compound 1 µM): 7.98%
viability, T/C (second compound 1 µM, first compound 3.16 µM): 3.91%
viability, T/C (second compound 1 µM, first compound 10 µM): 0.11%
viability, T/C [9]: 37.8%
viability, T/C (second compound 3.16 µM, first compound 0.1 µM): 34.1%
viability, T/C [10]: 20.5%
viability, T/C (second compound 3.16 µM, first compound 1 µM): 0.25%
viability, T/C (second compound 3.16 µM, first compound 3.16 µM): 0.07%
viability, T/C (second compound 3.16 µM, first compound 10 µM): 0.11%
viability, T/C [11]: 31.9%
viability, T/C (second compound 10 µM, first compound 0.1 µM): 27.6%
viability, T/C [12]: 21.5%
viability, T/C (second compound 10 µM, first compound 1 µM): 0.17%
viability, T/C (second compound 10 µM, first compound 3.16 µM): 0.14%
viability, T/C (second compound 10 µM, first compound 10 µM): 0.18%
